The record followed here is PubChem BioAssay (NCI).

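Five concentrations, 48 hours, 96-well plates. Abbreviation: GI50, concentration required for 50% inhibition of growth. TGI: total growth inhibition.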 Where a SMILES comes first, the peptide text is derived from it. [ ]: non-standard residue; d: D form. The star is where a group is joined. ξ: configuration not given here. X6 = FC(F)(F)c1cc(NC(=S)*)cc(C(F)(F)F)c1; ξF = NC(Cc1ccccc1)C(=O)O

In one experiment the test system is SF-539 CNS. Nature of the experiment: NCI tumour cell line growth inhibition, 48 h.
With `NC(Cc1c[nH]c2c(O)cccc12)C(=O)O` (stereo not given), the GI50 is above 100 µM and the TGI is above 100 µM.
Turning to `COc1cc(-c2nn(-c3ccc(NC(=O)c4ccc(Cl)c(C(F)(F)F)c4)cc3)cc2-c2ccncc2)ccc1Cl`, the GI50 was 1.83 µM and the TGI came out at 8.6 µM.
The matching figures for `O=C(/C=C/C12c3ccccc3C(c3ccccc31)C1C(=O)NC(=O)C12)c1ccncc1` (stereo not given): 2.03 µM and 5.72 µM.
On to `O=C1C(=O)N(c2ccc(Cl)cc2Cl)C(=O)C(=O)C1c1nc2ccccc2s1`, for which the TGI was above 100 µM.
In the case of `O=CN/C=C/c1cc(O)ccc1O`, the TGI came to 43.9 µM.
`COC(=O)[C@@H](NC(=O)CNC(=O)[C@H]1CCCN1C(=O)C(Cc1ccccc1)NC(=S)Nc1cc(C(F)(F)F)cc(C(F)(F)F)c1)C(C)C` (stereo not given in full) (X6-[ξF][dP]GV-OMe): the GI50 was 2.06 µM and the TGI is 3.94 µM.
Take `N#CC1C(C#N)C2(c3ccccc3)C(c3ccccc3)=NN(c3ccccc3)CC12` (stereo not given): the TGI is above 100 µM.
For `O=C1/C(=C/c2cccc([N+](=O)[O-])c2)COc2ccc(O)cc21`, the GI50 is 1.87 µM and the TGI was found to be 3.73 µM.
Regarding `NC(=O)c1sc(-n2cnc3ccccc32)cc1OCc1ccccc1Br`, the GI50 is 5.47 µM and the TGI was above 25 µM.
Taken in the same sequence, the figures for `Clc1ccc2c(NCCCCNc3nc(N4CCCCC4)nc4ccccc34)ccnc2c1` were 1.49 µM and 2.97 µM.
Taken in the same sequence, the figures for `O=C1CC(c2ccc3c(c2)OCO3)Nc2ccccc21` (stereo not given) were 10.8 µM and 24 µM.
The matching figures for `O=C1C(Cl)=C(Nc2cccc(Cl)c2)C(=O)N1Cc1ccc(Cl)cc1Cl`: below 0.0466 µM and 2.92 µM.

Another experiment deals with HCC-2998 colon. Put plainly: NCI tumour cell line growth inhibition, 48 h.
Turning to `NC(Cc1c[nH]c2c(O)cccc12)C(=O)O` (stereo not given), the GI50 is above 100 µM and the TGI was above 100 µM.
Regarding `COc1cc(-c2nn(-c3ccc(NC(=O)c4ccc(Cl)c(C(F)(F)F)c4)cc3)cc2-c2ccncc2)ccc1Cl`, the GI50 was 3.22 µM and the TGI is above 100 µM.
Consider `O=C(/C=C/C12c3ccccc3C(c3ccccc31)C1C(=O)NC(=O)C12)c1ccncc1` (stereo not given), for which the GI50 was 1.87 µM and the TGI was determined as 3.68 µM.
Turning to `O=C1C(=O)N(c2ccc(Cl)cc2Cl)C(=O)C(=O)C1c1nc2ccccc2s1`, the TGI was above 100 µM.
As to `O=CN/C=C/c1cc(O)ccc1O`, the TGI is above 100 µM.
With `COC(=O)[C@@H](NC(=O)CNC(=O)[C@H]1CCCN1C(=O)C(Cc1ccccc1)NC(=S)Nc1cc(C(F)(F)F)cc(C(F)(F)F)c1)C(C)C` (stereo not given in full) (X6-[ξF][dP]GV-OMe), the GI50 was 3.39 µM and the TGI amounted to 11.9 µM.
With `N#CC1C(C#N)C2(c3ccccc3)C(c3ccccc3)=NN(c3ccccc3)CC12` (stereo not given), the TGI is above 100 µM.
Take `O=C1/C(=C/c2cccc([N+](=O)[O-])c2)COc2ccc(O)cc21`: the GI50 was 1.75 µM and the TGI stood at 3.21 µM.
Taken in the same sequence, the figures for `NC(=O)c1sc(-n2cnc3ccccc32)cc1OCc1ccccc1Br` were 6.38 µM and above 25 µM.
With `Clc1ccc2c(NCCCCNc3nc(N4CCCCC4)nc4ccccc34)ccnc2c1`, the GI50 was 1.96 µM and the TGI came out at 4.23 µM.
`O=C1CC(c2ccc3c(c2)OCO3)Nc2ccccc21` (stereo not given): the GI50 is 15.8 µM and the TGI was 30.4 µM.
Taken in the same sequence, the figures for `O=C1C(Cl)=C(Nc2cccc(Cl)c2)C(=O)N1Cc1ccc(Cl)cc1Cl` were 4.23 µM and 18.8 µM.

The next experiment relates to IGROV1 ovarian. Nature of the experiment: NCI tumour cell line growth inhibition, 48 h.
With `NC(Cc1c[nH]c2c(O)cccc12)C(=O)O` (stereo not given), the GI50 was above 100 µM and the TGI was above 100 µM.
`COc1cc(-c2nn(-c3ccc(NC(=O)c4ccc(Cl)c(C(F)(F)F)c4)cc3)cc2-c2ccncc2)ccc1Cl`: the GI50 was 3.96 µM and the TGI was above 100 µM.
`O=C(/C=C/C12c3ccccc3C(c3ccccc31)C1C(=O)NC(=O)C12)c1ccncc1` (stereo not given): the GI50 is 2.39 µM and the TGI came out at 8 µM.
With `O=C1C(=O)N(c2ccc(Cl)cc2Cl)C(=O)C(=O)C1c1nc2ccccc2s1`, the TGI is above 100 µM.
`O=CN/C=C/c1cc(O)ccc1O`: the TGI came out at 71.4 µM.
Turning to `COC(=O)[C@@H](NC(=O)CNC(=O)[C@H]1CCCN1C(=O)C(Cc1ccccc1)NC(=S)Nc1cc(C(F)(F)F)cc(C(F)(F)F)c1)C(C)C` (stereo not given in full) (X6-[ξF][dP]GV-OMe), the GI50 was 3.31 µM and the TGI came out at 10.3 µM.
As for `N#CC1C(C#N)C2(c3ccccc3)C(c3ccccc3)=NN(c3ccccc3)CC12` (stereo not given), the TGI is above 100 µM.
For `O=C1/C(=C/c2cccc([N+](=O)[O-])c2)COc2ccc(O)cc21`, the GI50 is 1.73 µM and the TGI amounted to 3.34 µM.
Taken in the same sequence, the figures for `NC(=O)c1sc(-n2cnc3ccccc32)cc1OCc1ccccc1Br` were 11 µM and above 25 µM.
As for `Clc1ccc2c(NCCCCNc3nc(N4CCCCC4)nc4ccccc34)ccnc2c1`, the GI50 was 1.8 µM and the TGI was found to be 6.59 µM.
The matching figures for `O=C1CC(c2ccc3c(c2)OCO3)Nc2ccccc21` (stereo not given): 10.9 µM and 47.8 µM.
On to `O=C1C(Cl)=C(Nc2cccc(Cl)c2)C(=O)N1Cc1ccc(Cl)cc1Cl`, for which the GI50 is below 0.023 µM and the TGI stood at 9.15 µM.

A further experiment deals with ACHN renal. Nature of the experiment: NCI tumour cell line growth inhibition, 48 h.
Consider `NC(Cc1c[nH]c2c(O)cccc12)C(=O)O` (stereo not given), for which the GI50 was above 100 µM and the TGI was above 100 µM.
Take `COc1cc(-c2nn(-c3ccc(NC(=O)c4ccc(Cl)c(C(F)(F)F)c4)cc3)cc2-c2ccncc2)ccc1Cl`: the GI50 is 3.35 µM and the TGI is above 100 µM.
`O=C(/C=C/C12c3ccccc3C(c3ccccc31)C1C(=O)NC(=O)C12)c1ccncc1` (stereo not given): the GI50 was 2.83 µM and the TGI is 8.39 µM.
In turn, `O=C1C(=O)N(c2ccc(Cl)cc2Cl)C(=O)C(=O)C1c1nc2ccccc2s1` registered a TGI above 100 µM.
Still for that read-out and setting: the value for `O=CN/C=C/c1cc(O)ccc1O` was 28.9 µM.
In the case of `COC(=O)[C@@H](NC(=O)CNC(=O)[C@H]1CCCN1C(=O)C(Cc1ccccc1)NC(=S)Nc1cc(C(F)(F)F)cc(C(F)(F)F)c1)C(C)C` (stereo not given in full) (X6-[ξF][dP]GV-OMe), the GI50 is 3.36 µM and the TGI is 10.7 µM.
As for `N#CC1C(C#N)C2(c3ccccc3)C(c3ccccc3)=NN(c3ccccc3)CC12` (stereo not given), the TGI was above 100 µM.
Turning to `O=C1/C(=C/c2cccc([N+](=O)[O-])c2)COc2ccc(O)cc21`, the GI50 was 1.75 µM and the TGI stood at 3.21 µM.
For `NC(=O)c1sc(-n2cnc3ccccc32)cc1OCc1ccccc1Br`, the GI50 is 15.8 µM and the TGI is above 25 µM.
The matching figures for `Clc1ccc2c(NCCCCNc3nc(N4CCCCC4)nc4ccccc34)ccnc2c1`: 2.1 µM and 4.77 µM.
Turning to `O=C1CC(c2ccc3c(c2)OCO3)Nc2ccccc21` (stereo not given), the GI50 is 7.22 µM and the TGI is above 87.4 µM.
The matching figures for `O=C1C(Cl)=C(Nc2cccc(Cl)c2)C(=O)N1Cc1ccc(Cl)cc1Cl`: 0.409 µM and 7.71 µM.

Another experiment deals with SNB-75 CNS. Nature of the experiment: NCI tumour cell line growth inhibition, 48 h.
Turning to `NC(Cc1c[nH]c2c(O)cccc12)C(=O)O` (stereo not given), the GI50 was above 100 µM and the TGI is above 100 µM.
For the compound `COc1cc(-c2nn(-c3ccc(NC(=O)c4ccc(Cl)c(C(F)(F)F)c4)cc3)cc2-c2ccncc2)ccc1Cl`, the GI50 is 1.23 µM and the TGI is 6.83 µM.
Taken in the same sequence, the figures for `O=C(/C=C/C12c3ccccc3C(c3ccccc31)C1C(=O)NC(=O)C12)c1ccncc1` (stereo not given) were 2.19 µM and 10.9 µM.
Take `O=C1C(=O)N(c2ccc(Cl)cc2Cl)C(=O)C(=O)C1c1nc2ccccc2s1`: the TGI worked out at 81.8 µM.
On the same count and under the same terms, the value for `O=CN/C=C/c1cc(O)ccc1O` was 98.2 µM.
As to `COC(=O)[C@@H](NC(=O)CNC(=O)[C@H]1CCCN1C(=O)C(Cc1ccccc1)NC(=S)Nc1cc(C(F)(F)F)cc(C(F)(F)F)c1)C(C)C` (stereo not given in full) (X6-[ξF][dP]GV-OMe), the GI50 is 1.52 µM and the TGI is 3.49 µM.
`N#CC1C(C#N)C2(c3ccccc3)C(c3ccccc3)=NN(c3ccccc3)CC12` (stereo not given) registered a TGI above 100 µM.
With `O=C1/C(=C/c2cccc([N+](=O)[O-])c2)COc2ccc(O)cc21`, the GI50 is 2.63 µM and the TGI came to 14.9 µM.
Consider `NC(=O)c1sc(-n2cnc3ccccc32)cc1OCc1ccccc1Br`, for which the GI50 was 10.2 µM and the TGI is above 25 µM.
Turning to `Clc1ccc2c(NCCCCNc3nc(N4CCCCC4)nc4ccccc34)ccnc2c1`, the GI50 is 1.32 µM and the TGI was found to be 3.13 µM.
Taken in the same sequence, the figures for `O=C1CC(c2ccc3c(c2)OCO3)Nc2ccccc21` (stereo not given) were 4.04 µM and 18.5 µM.
Consider `O=C1C(Cl)=C(Nc2cccc(Cl)c2)C(=O)N1Cc1ccc(Cl)cc1Cl`, for which the GI50 is 1.29 µM and the TGI is 9.92 µM.
